Assay results taken from ChEMBL document CHEMBL5291721, “A preclinical secondary pharmacology resource illuminates target-adverse drug reaction associations of marketed drugs” (Nat Commun, 2023).

What was measured:
[1] = target: T1, 5-hydroxytryptamine receptor 1A (Homo sapiens, UniProt P08908); type: functional, cell-based
T1 sequence (P08908 whole entry): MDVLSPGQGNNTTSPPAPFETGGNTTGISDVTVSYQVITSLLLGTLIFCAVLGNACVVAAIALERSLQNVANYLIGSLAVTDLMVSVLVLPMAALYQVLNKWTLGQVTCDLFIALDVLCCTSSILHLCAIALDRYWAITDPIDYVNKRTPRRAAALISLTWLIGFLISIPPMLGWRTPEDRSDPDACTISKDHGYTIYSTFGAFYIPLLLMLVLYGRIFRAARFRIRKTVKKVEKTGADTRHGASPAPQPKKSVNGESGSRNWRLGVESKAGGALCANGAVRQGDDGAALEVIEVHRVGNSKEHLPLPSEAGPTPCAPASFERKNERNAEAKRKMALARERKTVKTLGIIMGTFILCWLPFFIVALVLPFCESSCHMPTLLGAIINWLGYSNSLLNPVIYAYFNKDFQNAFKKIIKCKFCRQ

Endothelin-1 receptor = target: T2, Endothelin-1 receptor (Homo sapiens, UniProt P25101)
T2 sequence (P25101 whole entry): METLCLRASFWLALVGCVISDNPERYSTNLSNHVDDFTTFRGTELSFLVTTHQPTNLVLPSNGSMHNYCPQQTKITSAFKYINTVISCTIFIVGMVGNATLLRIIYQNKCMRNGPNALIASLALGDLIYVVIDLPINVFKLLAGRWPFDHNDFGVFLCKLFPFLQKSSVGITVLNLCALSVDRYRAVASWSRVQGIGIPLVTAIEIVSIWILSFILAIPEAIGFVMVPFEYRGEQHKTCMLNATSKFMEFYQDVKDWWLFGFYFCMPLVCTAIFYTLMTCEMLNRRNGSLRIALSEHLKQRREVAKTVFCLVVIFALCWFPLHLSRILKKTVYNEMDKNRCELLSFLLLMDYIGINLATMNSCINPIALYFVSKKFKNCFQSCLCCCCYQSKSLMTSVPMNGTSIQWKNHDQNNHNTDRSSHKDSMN

Histamine H1 receptor = Histamine H1 receptor (Homo sapiens, UniProt P35367)
Histamine H1 receptor, sequence (P35367 whole entry): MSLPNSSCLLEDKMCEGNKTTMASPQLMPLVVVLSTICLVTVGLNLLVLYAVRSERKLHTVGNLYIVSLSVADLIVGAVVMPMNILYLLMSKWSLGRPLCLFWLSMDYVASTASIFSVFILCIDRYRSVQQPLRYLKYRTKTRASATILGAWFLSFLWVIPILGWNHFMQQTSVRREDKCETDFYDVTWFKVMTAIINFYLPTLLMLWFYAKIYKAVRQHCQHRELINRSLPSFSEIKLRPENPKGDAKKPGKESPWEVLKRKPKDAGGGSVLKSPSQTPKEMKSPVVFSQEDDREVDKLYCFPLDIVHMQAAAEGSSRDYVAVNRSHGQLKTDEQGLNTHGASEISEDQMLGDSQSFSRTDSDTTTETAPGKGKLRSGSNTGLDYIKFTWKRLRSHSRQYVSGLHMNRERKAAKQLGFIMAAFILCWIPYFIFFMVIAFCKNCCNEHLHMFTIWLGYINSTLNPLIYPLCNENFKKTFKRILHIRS

[2] = target: Muscarinic acetylcholine receptor M3 (Homo sapiens, UniProt P20309)
Muscarinic acetylcholine receptor M3, sequence (P20309 whole entry): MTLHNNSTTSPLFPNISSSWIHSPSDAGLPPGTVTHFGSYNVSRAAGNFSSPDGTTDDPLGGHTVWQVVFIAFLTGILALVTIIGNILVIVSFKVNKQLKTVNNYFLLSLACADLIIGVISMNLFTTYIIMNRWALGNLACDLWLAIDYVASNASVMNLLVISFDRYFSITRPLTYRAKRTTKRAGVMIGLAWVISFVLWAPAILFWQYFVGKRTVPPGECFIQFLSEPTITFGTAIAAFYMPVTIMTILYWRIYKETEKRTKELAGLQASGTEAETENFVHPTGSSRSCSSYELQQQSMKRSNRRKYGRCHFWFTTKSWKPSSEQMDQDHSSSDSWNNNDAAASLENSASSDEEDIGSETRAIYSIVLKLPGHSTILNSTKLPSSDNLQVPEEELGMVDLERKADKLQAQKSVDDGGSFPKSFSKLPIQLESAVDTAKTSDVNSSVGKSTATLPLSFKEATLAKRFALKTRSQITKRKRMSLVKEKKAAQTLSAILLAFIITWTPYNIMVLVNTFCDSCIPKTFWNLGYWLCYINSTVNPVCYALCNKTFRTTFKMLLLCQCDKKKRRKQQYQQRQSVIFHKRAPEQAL

B2 bradykinin receptor = target: T3, B2 bradykinin receptor (Homo sapiens, UniProt P30411)
T3 sequence (P30411 whole entry): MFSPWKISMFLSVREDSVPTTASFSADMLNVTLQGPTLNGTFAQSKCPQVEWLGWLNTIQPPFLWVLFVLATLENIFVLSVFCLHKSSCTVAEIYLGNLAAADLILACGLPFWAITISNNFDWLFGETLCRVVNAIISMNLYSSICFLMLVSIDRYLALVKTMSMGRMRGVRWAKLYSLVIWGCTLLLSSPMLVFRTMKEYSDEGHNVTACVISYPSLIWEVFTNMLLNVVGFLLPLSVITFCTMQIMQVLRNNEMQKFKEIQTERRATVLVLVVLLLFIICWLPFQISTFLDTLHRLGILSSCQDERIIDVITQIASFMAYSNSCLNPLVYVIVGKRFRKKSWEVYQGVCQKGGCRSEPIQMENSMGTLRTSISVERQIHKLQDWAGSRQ

[3] = target: Glutamate receptor ionotropic, NMDA 1 (Rattus norvegicus, UniProt P35439)
Thromboxane A2 receptor = target: T4, Thromboxane A2 receptor (Homo sapiens, UniProt P21731)
T4 sequence (P21731 whole entry): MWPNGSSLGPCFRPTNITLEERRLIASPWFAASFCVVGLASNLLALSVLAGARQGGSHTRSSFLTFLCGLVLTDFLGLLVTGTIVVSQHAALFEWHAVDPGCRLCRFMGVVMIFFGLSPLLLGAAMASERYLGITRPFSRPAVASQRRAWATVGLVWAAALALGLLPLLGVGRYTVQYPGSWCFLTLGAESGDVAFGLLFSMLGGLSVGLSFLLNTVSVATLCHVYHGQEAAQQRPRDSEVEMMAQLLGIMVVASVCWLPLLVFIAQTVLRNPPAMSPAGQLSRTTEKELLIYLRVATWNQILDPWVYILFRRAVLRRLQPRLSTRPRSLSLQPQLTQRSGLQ

[4] = target: T5, Gastrin/cholecystokinin type B receptor (Homo sapiens, UniProt P32239)
T5 sequence (P32239 whole entry): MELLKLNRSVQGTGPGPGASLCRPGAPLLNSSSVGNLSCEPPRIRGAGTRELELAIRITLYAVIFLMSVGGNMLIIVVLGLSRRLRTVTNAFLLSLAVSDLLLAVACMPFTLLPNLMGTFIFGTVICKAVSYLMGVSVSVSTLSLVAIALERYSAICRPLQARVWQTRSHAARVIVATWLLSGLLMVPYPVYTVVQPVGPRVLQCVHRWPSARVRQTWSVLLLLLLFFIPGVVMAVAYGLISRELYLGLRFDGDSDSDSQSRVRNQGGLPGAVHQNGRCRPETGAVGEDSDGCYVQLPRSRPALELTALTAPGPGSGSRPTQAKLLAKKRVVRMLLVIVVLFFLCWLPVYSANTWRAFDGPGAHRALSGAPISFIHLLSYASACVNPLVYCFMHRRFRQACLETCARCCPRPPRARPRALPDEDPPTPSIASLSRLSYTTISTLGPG

[5] = target: Sodium-dependent noradrenaline transporter (Homo sapiens, UniProt P23975)
Sodium-dependent noradrenaline transporter, sequence (P23975 whole entry): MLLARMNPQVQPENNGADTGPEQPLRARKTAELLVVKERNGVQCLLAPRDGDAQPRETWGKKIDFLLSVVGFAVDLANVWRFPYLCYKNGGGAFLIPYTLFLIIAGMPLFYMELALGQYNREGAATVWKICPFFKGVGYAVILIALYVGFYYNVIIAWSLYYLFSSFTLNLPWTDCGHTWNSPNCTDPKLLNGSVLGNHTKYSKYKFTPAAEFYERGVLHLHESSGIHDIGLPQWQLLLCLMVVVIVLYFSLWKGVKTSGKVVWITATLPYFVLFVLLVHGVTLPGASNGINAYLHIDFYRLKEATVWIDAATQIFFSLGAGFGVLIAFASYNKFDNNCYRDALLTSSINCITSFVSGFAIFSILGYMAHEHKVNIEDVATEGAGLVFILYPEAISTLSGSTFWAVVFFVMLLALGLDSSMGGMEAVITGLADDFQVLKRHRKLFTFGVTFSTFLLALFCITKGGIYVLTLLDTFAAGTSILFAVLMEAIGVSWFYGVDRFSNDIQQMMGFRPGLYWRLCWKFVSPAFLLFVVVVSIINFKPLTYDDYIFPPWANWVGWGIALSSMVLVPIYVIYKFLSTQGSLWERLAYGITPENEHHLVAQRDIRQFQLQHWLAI

D(3) dopamine receptor = D(3) dopamine receptor (Homo sapiens, UniProt P35462)
D(3) dopamine receptor, sequence (P35462 whole entry): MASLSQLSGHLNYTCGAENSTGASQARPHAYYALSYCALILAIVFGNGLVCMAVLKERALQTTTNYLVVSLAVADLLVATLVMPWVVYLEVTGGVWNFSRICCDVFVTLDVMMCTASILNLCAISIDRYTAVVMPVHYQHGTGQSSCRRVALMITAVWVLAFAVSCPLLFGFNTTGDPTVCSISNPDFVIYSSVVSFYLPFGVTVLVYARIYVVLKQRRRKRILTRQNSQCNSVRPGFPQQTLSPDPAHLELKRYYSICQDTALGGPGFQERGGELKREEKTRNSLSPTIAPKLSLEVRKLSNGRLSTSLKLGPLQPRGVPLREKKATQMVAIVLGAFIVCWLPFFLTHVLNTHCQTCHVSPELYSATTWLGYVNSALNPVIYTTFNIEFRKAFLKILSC

Histamine H3 receptor = Histamine H3 receptor (Homo sapiens, UniProt Q9Y5N1)
Histamine H3 receptor, sequence (Q9Y5N1 whole entry): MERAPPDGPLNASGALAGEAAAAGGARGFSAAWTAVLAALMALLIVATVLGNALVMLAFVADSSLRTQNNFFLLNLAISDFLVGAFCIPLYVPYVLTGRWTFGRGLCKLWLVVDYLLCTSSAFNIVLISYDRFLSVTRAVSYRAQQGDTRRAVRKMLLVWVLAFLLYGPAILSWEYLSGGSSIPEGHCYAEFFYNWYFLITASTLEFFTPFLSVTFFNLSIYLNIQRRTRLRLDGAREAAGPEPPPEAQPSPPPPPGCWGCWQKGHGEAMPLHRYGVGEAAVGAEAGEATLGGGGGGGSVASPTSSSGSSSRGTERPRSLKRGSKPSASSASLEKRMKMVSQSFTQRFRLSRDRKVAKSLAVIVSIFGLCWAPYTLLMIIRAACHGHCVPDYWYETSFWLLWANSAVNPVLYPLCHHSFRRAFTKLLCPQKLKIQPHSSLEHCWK

[6] = target: T1, 5-hydroxytryptamine receptor 1A
[7] = target: Beta-2 adrenergic receptor (Homo sapiens, UniProt P07550)
Beta-2 adrenergic receptor, sequence (P07550 whole entry): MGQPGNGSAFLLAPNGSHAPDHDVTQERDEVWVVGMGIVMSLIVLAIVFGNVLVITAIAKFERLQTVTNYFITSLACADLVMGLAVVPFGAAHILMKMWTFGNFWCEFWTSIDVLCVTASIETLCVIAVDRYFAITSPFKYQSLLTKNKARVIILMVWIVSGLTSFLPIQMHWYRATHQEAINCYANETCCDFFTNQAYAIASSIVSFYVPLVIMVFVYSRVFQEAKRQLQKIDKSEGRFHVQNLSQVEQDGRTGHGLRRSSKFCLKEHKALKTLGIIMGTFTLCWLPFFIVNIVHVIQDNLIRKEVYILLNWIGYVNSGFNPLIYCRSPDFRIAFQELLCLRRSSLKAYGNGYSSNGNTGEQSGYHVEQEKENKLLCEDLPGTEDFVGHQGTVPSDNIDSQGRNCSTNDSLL

D(1A) dopamine receptor = D(1A) dopamine receptor (Homo sapiens, UniProt P21728)
D(1A) dopamine receptor, sequence (P21728 whole entry): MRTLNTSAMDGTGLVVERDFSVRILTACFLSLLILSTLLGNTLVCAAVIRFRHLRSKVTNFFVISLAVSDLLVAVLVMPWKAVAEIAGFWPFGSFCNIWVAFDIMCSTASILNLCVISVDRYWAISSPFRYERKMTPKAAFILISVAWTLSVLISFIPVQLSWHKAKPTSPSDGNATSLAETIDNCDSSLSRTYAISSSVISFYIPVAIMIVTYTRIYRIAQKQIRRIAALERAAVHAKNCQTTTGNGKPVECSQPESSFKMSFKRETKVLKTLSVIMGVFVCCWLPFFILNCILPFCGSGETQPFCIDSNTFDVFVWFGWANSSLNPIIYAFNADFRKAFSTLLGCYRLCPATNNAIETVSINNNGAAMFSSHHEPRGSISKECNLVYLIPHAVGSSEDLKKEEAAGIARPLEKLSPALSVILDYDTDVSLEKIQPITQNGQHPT

[8] = target: Sodium-dependent serotonin transporter (Homo sapiens, UniProt P31645)
Sodium-dependent serotonin transporter, sequence (P31645 whole entry): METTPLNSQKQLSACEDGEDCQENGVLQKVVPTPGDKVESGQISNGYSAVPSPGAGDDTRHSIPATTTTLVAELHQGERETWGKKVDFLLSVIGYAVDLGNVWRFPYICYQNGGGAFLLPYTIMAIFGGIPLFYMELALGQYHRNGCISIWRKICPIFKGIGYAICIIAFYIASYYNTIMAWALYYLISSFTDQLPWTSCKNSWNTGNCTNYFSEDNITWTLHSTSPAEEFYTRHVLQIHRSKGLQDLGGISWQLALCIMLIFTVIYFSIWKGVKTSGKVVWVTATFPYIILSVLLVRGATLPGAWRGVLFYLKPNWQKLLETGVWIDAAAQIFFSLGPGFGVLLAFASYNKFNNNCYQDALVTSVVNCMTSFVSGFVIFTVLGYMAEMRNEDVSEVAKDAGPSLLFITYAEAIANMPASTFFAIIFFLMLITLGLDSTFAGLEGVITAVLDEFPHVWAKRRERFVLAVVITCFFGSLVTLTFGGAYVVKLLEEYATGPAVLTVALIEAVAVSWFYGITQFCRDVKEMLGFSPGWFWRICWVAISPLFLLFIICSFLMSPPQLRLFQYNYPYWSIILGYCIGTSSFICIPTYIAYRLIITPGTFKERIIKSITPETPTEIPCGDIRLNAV
Note: assay procedure not described here.

Structure (SMILES)	AC50 [1]	AC50 (Endothelin-1 receptor)	AC50 (Histamine H1 receptor)	AC50 [2]	AC50 [5]	AC50 (D(3) dopamine receptor)	AC50 (Histamine H3 receptor)	AC50 [6]	AC50 (D(1A) dopamine receptor)	further results
CN(C)CCC=C1c2ccccc2C(C)(C)c2ccccc21	> 30 µM	> 30 µM	0.0369 µM	0.38 µM						
Nc1nc(NC2CC2)c2ncn([C@H]3C=C[C@@H](CO)C3)c2n1 [ABACAVIR]		> 30 µM	> 30 µM	> 30 µM						AC50 (B2 bradykinin receptor): > 30 µM; AC50 [3]: > 30 µM; AC50 (Thromboxane A2 receptor): > 30 µM; AC50 [4]: > 30 µM
CC(=O)NCCCS(=O)(=O)O [ACAMPROSATE]	> 30 µM	> 30 µM	> 30 µM	> 30 µM						AC50 (B2 bradykinin receptor): > 30 µM; AC50 (Thromboxane A2 receptor): > 30 µM; AC50 [4]: > 30 µM
CC(=O)Nc1ccc(O)cc1 [ACETAMINOPHEN]	> 30 µM	> 30 µM			> 30 µM	> 30 µM	> 30 µM	> 30 µM		
COc1cc2nc(N(C)CCCNC(=O)C3CCCO3)nc(N)c2cc1OC (stereo not given) [ALFUZOSIN]		> 30 µM	> 30 µM	> 30 µM						AC50 [7]: > 30 µM; AC50 (B2 bradykinin receptor): > 30 µM; AC50 [3]: > 30 µM; AC50 (Thromboxane A2 receptor): > 30 µM; AC50 [4]: > 30 µM
COC(c1ccccc1)(c1ccccc1)[C@H](Oc1nc(C)cc(C)n1)C(=O)O [AMBRISENTAN]					> 30 µM	> 30 µM	> 30 µM	> 30 µM	> 30 µM	AC50 [8]: > 30 µM
CNC(=O)c1ccccc1Sc1ccc2c(/C=C/c3ccccn3)n[nH]c2c1 [AXITINIB]	> 30 µM	> 30 µM	> 30 µM	> 30 µM						AC50 [7]: > 10 µM; AC50 (Thromboxane A2 receptor): 8.66 µM
CCc1oc2ccccc2c1C(=O)c1cc(I)c(O)c(I)c1 [BENZIODARONE]					12.6 µM	8.59 µM	28.3 µM	12.4 µM	10 µM	AC50 [8]: > 30 µM
CN(C)CCn1nnnc1SCC1=C(C(=O)O)N2C(=O)[C@@H](NC(=O)Cc3csc(N)n3)[C@H]2SC1 [CEFOTIAM]					> 30 µM	> 30 µM	> 30 µM	> 30 µM	> 30 µM	AC50 [8]: > 30 µM
COCc1c(C(C)C)nc(C(C)C)c(/C=C/[C@@H](O)C[C@@H](O)CC(=O)O)c1-c1ccc(F)cc1 [CERIVASTATIN]					> 30 µM	> 30 µM	> 30 µM	> 30 µM	> 30 µM	
Oc1c(Cl)cc(Cl)c2cccnc12 [CHLOROXINE]					5.19 µM	> 30 µM	> 30 µM	17.2 µM	> 30 µM	AC50 [8]: > 30 µM
C[N+](C)(C)CCO [CHOLINE]					> 30 µM	> 30 µM	> 30 µM	> 30 µM	> 30 µM	
CN(C)[C@@H](c1cccc(O)c1)[C@H]1CCCC[C@H]1O [CIRAMADOL]					> 30 µM	> 30 µM	> 30 µM	> 30 µM	> 30 µM	AC50 [8]: 27.5 µM
CN(C)CC(c1ccc(O)cc1)C1(O)CCCCC1 (stereo not given) [DESVENLAFAXINE]							> 30 µM	> 30 µM	> 30 µM	
CN(C)CCN1C(=O)c2ccccc2N(C)c2ccccc21 [DIBENZEPIN]					0.212 µM	16.3 µM	> 30 µM	0.306 µM	14.3 µM	AC50 [8]: 1.32 µM
N[C@H](C(=O)O)[C@H](O)c1ccc(O)c(O)c1 [DROXIDOPA]					> 30 µM	> 30 µM	> 30 µM	> 30 µM	> 30 µM	AC50 [8]: > 30 µM
C[C@]12CC[C@@H]3c4ccc(O)cc4CC[C@H]3[C@@H]1C[C@@H](O)[C@@H]2O [ESTRIOL]					> 30 µM	> 30 µM	> 30 µM	> 30 µM	> 30 µM	
Cc1cc(C#N)cc(C)c1Oc1nc(Nc2ccc(C#N)cc2)nc(N)c1Br [ETRAVIRINE]					5.88 µM	> 30 µM	> 30 µM	> 30 µM	4.53 µM	AC50 [8]: > 30 µM
CCC1=C(C)CN(C(=O)NCCc2ccc(S(=O)(=O)NC(=O)N[C@H]3CC[C@H](C)CC3)cc2)C1=O [GLIMEPIRIDE]					> 30 µM	> 30 µM	> 30 µM	> 30 µM	> 30 µM	
C[C@H]1CNCCc2ccc(Cl)cc21 [LORCASERIN]	4.4 µM	> 30 µM	28 µM	> 30 µM						
CNC1Cc2ccccc2N(C)c2ccccc21 (stereo not given) [METAPRAMINE]	> 30 µM	> 30 µM	0.34 µM	> 30 µM						
Cc1nc([N+](=O)[O-])cn1-c1ccc([N+](=O)[O-])cc1 [NITREFAZOLE]		> 30 µM	> 30 µM	> 30 µM						AC50 (B2 bradykinin receptor): > 30 µM; AC50 [3]: > 30 µM; AC50 (Thromboxane A2 receptor): > 30 µM; AC50 [4]: > 30 µM
COc1ccc(CC(C)(C)NC[C@H](O)c2cc(O)cc3c2OCC(=O)N3)cc1 [OLODATEROL]	29 µM	> 30 µM	> 30 µM	> 30 µM						
CC(C)(S)[C@@H](N)C(=O)O [PENICILLAMINE]					> 30 µM	> 30 µM	> 30 µM	> 30 µM	> 30 µM	
C1CCC(C(CC2CCCCN2)C2CCCCC2)CC1 (stereo not given) [PERHEXILINE]	> 3 µM	> 30 µM								
c1cnc(N2CCN(Cc3ccc4c(c3)OCO4)CC2)nc1 [PIRIBEDIL]	20 µM	> 30 µM	> 30 µM	> 30 µM						
COc1cc(NC(C)CCCN)c2ncccc2c1 (stereo not given) [PRIMAQUINE]		> 30 µM								AC50 (B2 bradykinin receptor): > 30 µM; AC50 (Thromboxane A2 receptor): > 30 µM; AC50 [4]: > 30 µM
C=C[C@H]1C[N@@]2CC[C@H]1C[C@H]2[C@H](O)c1ccnc2ccc(OC)cc12 [QUININE]					> 30 µM	> 30 µM	> 30 µM	> 30 µM	> 30 µM	
N[C@@H]1[C@H]2CN(c3nc4c(cc3F)c(=O)c(C(=O)O)cn4-c3ccc(F)cc3F)C[C@@H]12 [TROVAFLOXACIN]	> 30 µM	> 30 µM								
